Molecules are shown by their SMILES. In brackets after ≈: the same amount, converted by molar mass.

What all share (type): cell-based
One series deals with Trichophyton asteroides. As to the kind of experiment: Minimum inhibitory concentration against Trichophyton asteroides, test tube experiment in Sabouraud's dextrose broth. The text has this: In the test, Sabouraud's dextrose broth* was used.
The subject of another series is C. albicans KE-2. As to the kind of experiment: Inhibition test against pseudomycelium formation of Candida albicans. The note with it: minimum effective concentration preventing typical pseudomycelium formation; EMEM with 20 % calf serum, 1 x 10⁶ yeast cells per milliliter, 18 hr. at 37 °C; read-out: Inhibitory Concentration of Pseudomyselium Formation. As to the method: Inhibition test against pseudomycelium formation of Candida albicans.
C. albicans KE-2 was inoculated to EMEM (Nissan 2 made by Nissui Seiyaku, Ltd.) supplemented with 20 % calf serum so that its final inoculum might be 1 x 10⁶ yeast cells per milliliter. The test compounds were added thereon in two fold dilution series. After inocubation for 18 hr. at 37 °C, the fungal growth in each drug concentration was smeared and fixed on a slide glass, and its morphological feature on the presence or absence of the pseudomycelium formation was examined by a microscope following Giemsa staining. Minimum effective concentration was defined as the lowest concentration of the compound which prevented typical pseudomycelium formation.

Series [1] relates to influenza virus Ao/WSN (H₁N₁). As to the kind of experiment: Antiviral activity: Plaque Reduction Test in MDCK cells. The following applies: unidentified influenza virus, read-out: ED 50 (1) Plaque Reduction Test.
A short description of the next series: in vitro. The following applies: dog, mdck. The procedure: (3) Colony Formation Test The action to the host cell was examined by the following method: MDCK cells (coming from dog's kidney) were adjusted to a concentration of 200 cells/ml with a growth medium and poured into each pore of Lindbrow's 12 pores microplate 1 ml by 1 ml. The test compound diluted with a growth medium was added to the pores 1 ml by 1 ml, and the whole was cultivated in a cultivating apparatus filled with 5% carbon dioxide gas at 37°C for 7 days. After dyeing with 1% crystal violet dyeing solution for 15 min, the number of cell colonies was counted. The concentration of the test compound which inhibited 50% the growth of cell colonies in comparison with obtained without using the test compound was evaluated as TD₅₀ value for judging the toxicity against cell.

The subject of series [2] is influenza virus Ao/WSN (H₁N₁). Put plainly: microbe, parasite or virus in culture. The following applies: unidentified influenza virus, MDCK, 24 h, read-out: ED 50 (2) Virus Yield Test.

As usually defined, the MIC is the smallest concentration in the dilution series that meets the test's criterion for growth inhibition. The low end stands for a more susceptible organism, the high end for a less susceptible organism. In turn, `C=C(c1cc(Cl)ccc1OCC(=O)c1ccc(Cl)cc1)n1ccnc1` [Compound I-107] registered an MIC in the series on Trichophyton asteroides of 0.1 µg/mL (≈ 0.268 µM).
Take `Oc1ccc(Cl)cc1C(=C1CCCCC1)n1ccnc1` [Compound I-22]: in the series with Trichophyton asteroides, the MIC came to 0.1 µg/mL (≈ 0.346 µM).
Take `C=C(c1cc(-c2ccccc2)ccc1OC)n1ccnc1` [Compound I-49]: the MIC with Trichophyton asteroides stood at 0.1 µg/mL (≈ 0.362 µM).
In the series on Trichophyton asteroides, `CC(C)Oc1ccc(Cl)cc1C(=C1CCCCC1)n1ccnc1` [Compound I-66] came in with an MIC of 0.1 µg/mL (≈ 0.302 µM). In addition, the minimal effective concentration with C. albicans KE-2 came out at 0.08 µg/mL.
In the case of `Oc1ccc(Cl)cc1/C(=C/c1ccc(Cl)cc1Cl)n1ccnc1` [Compound I-9], the MIC against Trichophyton asteroides was 0.1 µg/mL (≈ 0.273 µM).
As to `CCC(CC)=C(c1cc(Cl)ccc1OC(C)C)n1ccnc1` [Compound I-52], the MIC in the series on Trichophyton asteroides was 0.1 µg/mL (≈ 0.314 µM). In addition, the minimal effective concentration in the series on C. albicans KE-2 came to 0.08 µg/mL.
`CCCCOc1ccc(Cl)cc1C(=C(CC)CC)n1ccnc1` [Compound I-51]: the minimal effective concentration in the series with C. albicans KE-2 was 0.31 µg/mL.
One may read the CC50 as the concentration at which the toxic effect on the cells reaches its halfway point. A low value points to greater toxicity to the cells. In the case of `COc1ccc(Cl)cc1C(=C1CCCCC1)n1cncn1` [Compound I-57], the EC50 in series [1] was 48 µg/mL (≈ 158 µM); in series [2], 30 µg/mL (≈ 98.8 µM). Besides, the CC50 at 168 h in “in vitro” is 70 µg/mL (≈ 230 µM).
In the series with Trichophyton asteroides, `CCC(CC)=C(c1cc(Cl)ccc1OC)n1ccnc1` [Compound I-50] came in with an MIC of 0.1 µg/mL (≈ 0.344 µM). In addition, the minimal effective concentration with C. albicans KE-2 amounted to 0.31 µg/mL.
Turning to `COc1ccc(Cl)cc1C(=C1CCCCC1)n1ccnc1` [Compound I-56], the MIC in the series with Trichophyton asteroides is 0.1 µg/mL (≈ 0.33 µM).
In the series with Trichophyton asteroides, `C=C(c1c(O)cccc1OCCCC)n1ccnc1` [Compound I-4] had an MIC of 0.1 µg/mL (≈ 0.387 µM).
As for `CC(C)Oc1ccc(Cl)cc1C(=C1CCCCC1)n1cncn1` [Compound I-58], in the series with C. albicans KE-2, the minimal effective concentration came out at 0.16 µg/mL.
With `CCC(CC)=C(c1cc(Cl)ccc1O)n1cncn1` [Compound I-6], in the series on Trichophyton asteroides, it took 0.1 µg/mL (≈ 0.36 µM) to inhibit growth (MIC).
`CCC(CC)=C(c1cc(Cl)ccc1O)n1ccnc1` [Compound I-5] had an MIC against Trichophyton asteroides of 0.1 µg/mL (≈ 0.361 µM). In the series with C. albicans KE-2, the minimal effective concentration came to 0.63 µg/mL.

These data come from patent EP0227100A2, “N-Vinylimidazoles and -triazoles and pharmaceutical compositions containing them” (SHIONOGI SEIYAKU KABUSHIKI KAISHA, priority 1985, dated 1987).
